These results are taken from PubChem BioAssay AID652280 (Broad Institute, 2013).

Records with an inconclusive call do not appear. Active and inactive are the calls of the source. No rule for the calls is given here.

A short description of this assay: mouse embryonic fibroblast toxicity – cell-based, plate reader, dry powder, set 2, cytotoxicity control, dose response (AID 652280). The note with it: NIH/3T3 mouse fibroblast toxicity, plate reader.

As for `CC(C)N1C[C@H](C)[C@@H](CN(C)C(=O)OC(C)(C)C)Oc2c(cccc2-c2nn[nH]n2)C1=O`, the activity change, negative = toxicity (at 16 µM (top of the series)) is 34.3% (inactive).

`Cc1ccccc1CN(C)C[C@H]1Oc2c(NC(=O)c3ccncc3)cccc2C(=O)N([C@@H](C)CO)C[C@@H]1C`: where the note is “at 16 µM (top of the series)”, the activity change, negative = toxicity is -4.8% (inactive).

In the case of `CN(C)C(=O)c1cccc(-c2ccc([C@H]3[C@@H](CO)N4CCCCN(C(=O)C5CCC5)C[C@@H]34)cc2)c1`, the activity change, negative = toxicity (at 16 µM (top of the series)) was 1.53% (inactive).

Consider `CC(C)(C)S(=O)N1Cc2cc(C(=O)NCc3ccc4c(c3)OCO4)nc(-c3cccc(C#CCC4CCCC4)c3)c2[C@H]1CCO` (stereo partly drawn), for which the activity change, negative = toxicity (at 16 µM (top of the series)) was 96.9% (inactive).

With `COc1ccc(S(=O)(=O)N(C)C[C@H]2OCCCC[C@@H](C)Oc3ccc(N(C)C)cc3C(=O)N([C@H](C)CO)C[C@@H]2C)cc1`, the activity change, negative = toxicity (at 16 µM (top of the series)) is 12.3% (inactive).

`CC(C)N1C[C@@H](CNCc2ccc(Oc3ccccc3)cc2)Oc2c(NC(=O)c3ccncc3)cccc2C1=O`: the activity change, negative = toxicity (at 16 µM (top of the series)) is -29.5% (inactive).

Take `CN(C)C(=O)c1cccc(-c2ccc([C@@H]3[C@@H](CO)N4CCCCN(C(=O)C5CCC5)C[C@@H]34)cc2)c1`: the activity change, negative = toxicity (at 16 µM (top of the series)) was 0.445% (inactive).

Take `COc1ccc(C#Cc2cccc(-c3nc(C(=O)NCc4ccc5c(c4)OCO5)cc4c3[C@@H](CCO)N(S(=O)C(C)(C)C)C4)c2)cc1OC` (stereo partly drawn): under “at 16 µM (top of the series)”, the activity change, negative = toxicity is 9.35% (inactive).

Turning to `CC(C)N1C[C@@H](CN(C)CCc2ccc(Cl)cc2)Oc2c(NC(=O)c3ccncc3)cccc2C1=O`, for the setting “at 16 µM (top of the series)”, the activity change, negative = toxicity is -32% (inactive).

With `CC(C)N1CC2(CN(Cc3ccc(F)cc3)C2)Oc2c(NC(=O)c3ccncc3)cccc2C1=O`, the activity change, negative = toxicity (at 16 µM (top of the series)) was -0.418% (inactive).

For the compound `CC(C)N1C[C@H](CN(C)Cc2ccc(Cl)cc2)Oc2c(NC(=O)c3ccncc3)cccc2C1=O`, where the note is “at 16 µM (top of the series)”, the activity change, negative = toxicity is -35.4% (inactive).

Consider `CC(C)(C)S(=O)N1Cc2cc(C(=O)NCc3ccc4c(c3)OCO4)nc(-c3cccc(C#CCC4CCCC4)c3)c2[C@@H]1CCO` (stereo partly drawn), for which the activity change, negative = toxicity (at 16 µM (top of the series)) was 83.4% (inactive).

Consider `COc1cccc(CN(C)C[C@H]2Oc3c(NC(=O)c4ccncc4)cccc3C(=O)N([C@@H](C)CO)C[C@@H]2C)c1`, for which the activity change, negative = toxicity (at 16 µM (top of the series)) is 6.03% (inactive).

Consider `COCCNC(=O)c1cc2c(c(-c3cccc(C#CCN(C)C)c3)n1)[C@@H](CCO)N(S(=O)C(C)(C)C)C2` (stereo partly drawn), for which the activity change, negative = toxicity (at 16 µM (top of the series)) was 5.61% (inactive).

With `CC(C)N1C[C@H](C)[C@@H](CN(C)Cc2ccc(Cl)cc2)Oc2c(NC(=O)c3ccncc3)cccc2C1=O`, for the setting “at 16 µM (top of the series)”, the activity change, negative = toxicity was -13.4% (inactive).

Take `CC(C)N1CC2(CN(C(=O)c3ccc(Cl)cc3)C2)Oc2c(NC(=O)c3ccncc3)cccc2C1=O`: the activity change, negative = toxicity (at 16 µM (top of the series)) was 10.5% (inactive).

`C[C@H]1CN([C@@H](C)CO)C(=O)c2cccc(NC(=O)c3ccncc3)c2O[C@@H]1CN(C)Cc1ccccc1Cl`: the activity change, negative = toxicity (at 16 µM (top of the series)) was -7.97% (inactive).

As to `COc1cccc(-c2ccc([C@H]3[C@H](CO)N4CCCCN(C(=O)Cc5ccncc5)C[C@@H]34)cc2)c1`, the activity change, negative = toxicity (at 16 µM (top of the series)) is -1.62% (inactive).

Take `CC(C)N1C[C@@H](CN(C)Cc2ccc(Cl)cc2)Oc2c(NC(=O)c3ncn[nH]3)cccc2C1=O`: for the setting “at 16 µM (top of the series)”, the activity change, negative = toxicity is 0.096% (inactive).

Take `C[C@@H](CO)N1CC[C@H](CNC(=O)OC(C)(C)C)Oc2c(cccc2[N+](=O)[O-])C1=O`: the activity change, negative = toxicity (at 16 µM (top of the series)) is 16.7% (inactive).

On to `CC(C)N1C[C@@H](CN(C)Cc2ccc(Cl)cc2)Oc2c(NC(=O)c3ccncn3)cccc2C1=O`, for which the activity change, negative = toxicity (at 16 µM (top of the series)) is -18.8% (inactive).

For `CCOC(=O)c1cc2c(c(-c3cccc(C#CCN(C)C)c3)n1)[C@@H](CCO)N(S(=O)C(C)(C)C)C2` (stereo partly drawn), the activity change, negative = toxicity (at 16 µM (top of the series)) was 21.1% (inactive).

As for `COC[C@H](C)N1C[C@H](C)[C@@H](CN(C)Cc2ccc(Cl)cc2)Oc2c(NC(=O)c3ccncc3)cccc2C1=O`, the activity change, negative = toxicity (at 16 µM (top of the series)) is 2.38% (inactive).

With `C[C@H]1CN([C@@H](C)CO)C(=O)c2cccc(NC(=O)c3ccncc3)c2O[C@@H]1CN(C)Cc1cc(Cl)cc(Cl)c1`, where the note is “at 16 µM (top of the series)”, the activity change, negative = toxicity was 15% (inactive).

In the case of `OC[C@H]1[C@H](c2ccc(Br)cc2)[C@@H]2CN(Cc3ccccn3)CCCCN12`, where the note is “at 16 µM (top of the series)”, the activity change, negative = toxicity is 5.37% (inactive).

`CN(C)CC#Cc1cccc(-c2nc(C(=O)NCc3ccc4c(c3)OCO4)cc3c2[C@H](CCO)N(S(=O)C(C)(C)C)C3)c1` (stereo partly drawn): where the note is “at 16 µM (top of the series)”, the activity change, negative = toxicity is 6.62% (inactive).

Take `C[C@@H]1CN([C@H](C)CO)C(=O)c2cccc(NC(=O)c3ccncc3)c2O[C@H]1CN(C)Cc1ccc2c(c1)OCO2`: the activity change, negative = toxicity (at 16 µM (top of the series)) was -14.9% (inactive).

As for `COc1ccccc1CN(C)C[C@H]1Oc2c(NC(=O)c3ccncc3)cccc2C(=O)N([C@@H](C)CO)C[C@@H]1C`, where the note is “at 16 µM (top of the series)”, the activity change, negative = toxicity is -28.8% (inactive).

With `COCCNC(=O)c1cc2c(c(-c3cccc(C#CCN(C)C)c3)n1)[C@H](CCO)N(S(=O)C(C)(C)C)C2` (stereo partly drawn), where the note is “at 16 µM (top of the series)”, the activity change, negative = toxicity is 20.8% (inactive).

`CN(C)C(=O)c1cccc(-c2ccc([C@H]3[C@@H](CO)N4CCCCN(C(=O)C5CCC5)C[C@H]34)cc2)c1`: the activity change, negative = toxicity (at 16 µM (top of the series)) was 9.2% (inactive).

As to `CC(C)N1C[C@@H](C)[C@H](CN(C)Cc2ccc(OCCCC(F)(F)C(F)(F)C(F)(F)C(F)(F)C(F)(F)C(F)(F)C(F)(F)C(F)(F)F)cc2)Oc2c(NC(=O)c3ccncc3)cccc2C1=O`, where the note is “at 16 µM (top of the series)”, the activity change, negative = toxicity is 22.1% (inactive).

Consider `CC(C)(C)[S@](=O)N1Cc2cc(C(=O)NCc3ccc4c(c3)OCO4)nc(-c3cccc(-c4ccncc4)c3)c2[C@@H]1CCO`, for which the activity change, negative = toxicity (at 16 µM (top of the series)) was -21.4% (inactive).

As to `CN(C)CC#Cc1cccc(-c2nc(C(=O)NCCCN3CCOCC3)cc3c2[C@H](CCO)N(S(=O)C(C)(C)C)C3)c1` (stereo partly drawn), the activity change, negative = toxicity (at 16 µM (top of the series)) is 16% (inactive).

For the compound `CN(C)CC#Cc1cccc(-c2nc(C(=O)N3CCN(C)CC3)cc3c2[C@@H](CCO)N(S(=O)C(C)(C)C)C3)c1` (stereo partly drawn), the activity change, negative = toxicity (at 16 µM (top of the series)) is 18.9% (inactive).

For the compound `COC[C@H](C)N1C[C@H](C)[C@@H](CN(C)Cc2ccc(Oc3ccccc3)cc2)Oc2c(NC(=O)c3ccncc3)cccc2C1=O`, the activity change, negative = toxicity (at 16 µM (top of the series)) is 128% (inactive).

Regarding `Cc1cccc(-c2ccc([C@H]3[C@H](CO)N4CCCCN(C(=O)c5cccnc5)C[C@@H]34)cc2)c1`, the activity change, negative = toxicity (at 16 µM (top of the series)) was -10.6% (inactive).

As to `CN(C)C(=O)c1cccc(-c2ccc([C@@H]3[C@@H](CO)N4CCCCN(C(=O)C5CCC5)C[C@H]34)cc2)c1`, the activity change, negative = toxicity (at 16 µM (top of the series)) is 5.21% (inactive).

In the case of `CC(C)N1C[C@H](C)[C@@H](CN(C)Cc2ccc(Cl)cc2)Oc2c(C(=O)Nc3ccncc3)cccc2C1=O`, the activity change, negative = toxicity (at 16 µM (top of the series)) is -7.6% (inactive).

On to `CC(C)N1C[C@@H](CN(C)Cc2ccc(Cl)cc2)Oc2c(NC(=O)c3ccnn3C)cccc2C1=O`, for which the activity change, negative = toxicity (at 16 µM (top of the series)) was 5.57% (inactive).

For `CC(C)N1C[C@@H](C)[C@H](CN(C)C(=O)OC(C)(C)C)Oc2c(C(=O)Nc3ccncc3)cccc2C1=O`, the activity change, negative = toxicity (at 16 µM (top of the series)) was -10.9% (inactive).

`C[C@H]1CN([C@@H](C)CO)C(=O)c2cccc(NC(=O)c3ccncc3)c2O[C@@H]1CN(C)Cc1ccccc1C(F)(F)F`: the activity change, negative = toxicity (at 16 µM (top of the series)) is 14.1% (inactive).

Consider `CC(C)N1C[C@H](C)[C@@H](CN(C)Cc2ccc(Oc3ccccc3)cc2)Oc2c(cccc2-c2nn[nH]n2)C1=O`, for which, where the note is “at 16 µM (top of the series)”, the activity change, negative = toxicity was 28.7% (inactive).

`CC(C)N1CC2(CN(Cc3ccccc3)C2)Oc2c(NC(=O)c3ccncc3)cccc2C1=O`: the activity change, negative = toxicity (at 16 µM (top of the series)) is -2.24% (inactive).

For `C[C@@H]1CCCCO[C@H](CN(C)Cc2ccc(Cl)c(Cl)c2)[C@@H](C)CN([C@H](C)CO)C(=O)c2cc(N(C)C)ccc2O1`, for the setting “at 16 µM (top of the series)”, the activity change, negative = toxicity was 82.1% (inactive).

For the compound `CC(=O)N1CCCCN2[C@@H](CO)[C@H](c3ccc(-c4cccc(C(=O)N(C)C)c4)cc3)[C@@H]2C1`, the activity change, negative = toxicity (at 16 µM (top of the series)) was 24.4% (inactive).

For `Cc1ccc(S(=O)(=O)N(C)C[C@H]2OCCCC[C@@H](C)Oc3ccc(N(C)C)cc3C(=O)N([C@H](C)CO)C[C@@H]2C)cc1`, where the note is “at 18 µM (top of the series)”, the activity change, negative = toxicity was 25.8% (inactive).

As for `CN(C)C(=O)c1ccc(-c2ccc([C@H]3[C@H](CO)N4CCCCN(C(=O)C5CCC5)C[C@@H]34)cc2)cc1`, the activity change, negative = toxicity (at 16 µM (top of the series)) is -17% (inactive).

Turning to `CN(C)CC#Cc1cccc(-c2nc(C(=O)N[C@@H]3CCN(Cc4ccccc4)C3)cc3c2[C@@H](CCO)N(S(=O)C(C)(C)C)C3)c1` (stereo partly drawn), the activity change, negative = toxicity (at 16 µM (top of the series)) was 0.065% (inactive).

Turning to `CN1CCCCN2[C@@H](CO)[C@H](c3ccc(Br)cc3)[C@@H]2C1`, the activity change, negative = toxicity (at 16 µM (top of the series)) is -2.42% (inactive).

For the compound `CC(C)N1C[C@@H](CN(C)Cc2ccc(Cl)cc2)Oc2c(C(=O)Nc3ccncc3)cccc2C1=O`, the activity change, negative = toxicity (at 16 µM (top of the series)) was -18.4% (inactive).

Turning to `CNC[C@@H]1Oc2c(NC(=O)c3ccncc3)cccc2C(=O)N(C(C)C)C[C@H]1C`, the activity change, negative = toxicity (at 16 µM (top of the series)) was 1.96% (inactive).

On to `COCC(=O)N1CCCCN2[C@@H](CO)[C@H](c3ccc(-c4cccc(C)c4)cc3)[C@@H]2C1`, for which the activity change, negative = toxicity (at 16 µM (top of the series)) was -12.3% (inactive).

Take `O=C(Cc1ccccn1)N1CCCCN2[C@@H](CO)[C@H](c3ccc(-c4ccccc4)cc3)[C@@H]2C1`: the activity change, negative = toxicity (at 16 µM (top of the series)) was -15.8% (inactive).

For the compound `CC(C)N1CC2(CN(Cc3ccc(Cl)cc3)C2)Oc2c(NC(=O)c3ccncc3)cccc2C1=O`, the activity change, negative = toxicity (at 16 µM (top of the series)) is -2.46% (inactive).

As to `CC(C)(O)C#Cc1cccc(-c2nc(C(=O)NCc3ccc4c(c3)OCO4)cc3c2[C@H](CCO)N(S(=O)C(C)(C)C)C3)c1` (stereo partly drawn), for the setting “at 16 µM (top of the series)”, the activity change, negative = toxicity was -19.2% (inactive).

For `CN(C)C(=O)c1cccc(-c2ccc([C@H]3[C@H](CO)N4CCCCN(C(=O)C5CCCC5)C[C@@H]34)cc2)c1`, under “at 16 µM (top of the series)”, the activity change, negative = toxicity was 32.1% (inactive).

In the case of `O=C(CN1CCOCC1)N1CCCCN2[C@@H](CO)[C@H](c3ccc(-c4ccccc4)cc3)[C@@H]2C1`, where the note is “at 16 µM (top of the series)”, the activity change, negative = toxicity was -1.37% (inactive).

Turning to `CC(C)N1C[C@@H](C)[C@H](CN(C)Cc2ccc(Oc3ccccc3)cc2)Oc2c(C(=O)O)cccc2C1=O`, the activity change, negative = toxicity (at 16 µM (top of the series)) is 9.6% (inactive).
